Ends that are not written are not given here.
Legend:
Format in all cases: cell-based
HLA-B*2701 = target: T1, HLA-B*2701 (Homo sapiens, UniProt P01889, D138H/D201E/D98Y/E176V/E204Q/G107R/H137Y/K202T/L105A/N104T/N87E/Q56L/Q94K/R106L/R155S/R180L/S101N/S121N/S48T/Y140D/Y33H/Y91C); assay: HLA/peptide complex stability assay, RMA-S cells transfected with HLA-B*2701; conditions: SD
T1 construct: expressed in transfected cells; host or cells: RMA-S (TAP-deficient murine cell line)

HLA-B*2704 = HLA-B*2704 (Homo sapiens, UniProt P01889, A235G/D138H/D201E/E204Q/G107R/H137Y/K202T/N104T/N87E/Q56L/Q94K/R106L/R155S/R180L/S121N/S48T/Y140D/Y33H/Y91C); assay: HLA/peptide complex stability assay, RMA-S cells transfected with HLA-B*2704; conditions: SD
HLA-B*2705 = target: T2, HLA-B*2705 (Homo sapiens, UniProt P01889, D138H/D201E/E176V/E204Q/G107R/H137Y/K202T/N104T/N87E/Q56L/Q94K/R106L/R155S/R180L/S101D/S121N/S48T/Y140D/Y33H/Y91C); assay: HLA/peptide complex stability assay, RMA-S cells transfected with HLA-B*2705; conditions: SD
T2 construct: expressed in transfected cells; host or cells: RMA-S (TAP-deficient murine cell line)

HLA-B*2709 = target: T3, HLA-B*2709 (Homo sapiens, UniProt P01889, D138H/D201E/E176V/E204Q/G107R/H137Y/K202T/N104T/N87E/Q56L/Q94K/R106L/R155S/R180L/S101D/S121N/S48T/Y140H/Y33H/Y91C); assay: HLA/peptide complex stability assay, RMA-S cells transfected with HLA-B*2709; conditions: EC50, B*2709; SD
T3 construct: expressed in transfected cells; host or cells: RMA-S (TAP-deficient murine cell line)

HLA-B*2703 = target: T4, HLA-B*2703 (Homo sapiens, UniProt P01889, D138H/D201E/E176V/E204Q/G107R/H137Y/K202T/N104T/N87E/Q56L/Q94K/R106L/R155S/R180L/S101D/S121N/S48T/Y140D/Y33H/Y83H/Y91C); assay: HLA/peptide complex stability assay, RMA-S cells transfected with HLA-B*2703; conditions: EC50, B*2703; SD
T4 construct: expressed in transfected cells; host or cells: RMA-S (TAP-deficient murine cell line)

HLA-B*2702 = HLA-B*2702 (Homo sapiens, UniProt P01889, D138H/D201E/E176V/E204Q/G107R/H137Y/K202T/L105A/N104I/N87E/Q56L/Q94K/R106L/R155S/R180L/S101N/S121N/S48T/Y140D/Y33H/Y91C); assay: HLA/peptide complex stability assay, RMA-S cells transfected with HLA-B*2702; conditions: EC50, B*2702; SD
HLA-B*2706 = target: T5, HLA-B*2706 (Homo sapiens, UniProt P01889, A235G/D201E/E204Q/G107R/H137Y/K202T/N104T/N87E/Q56L/Q94K/R106L/R155S/R180L/S121N/S48T/Y33H/Y91C); assay: HLA/peptide complex stability assay, RMA-S cells transfected with HLA-B*2706; conditions: SD
T5 construct: expressed in transfected cells; host or cells: RMA-S (TAP-deficient murine cell line)

## RRAIATPGM [Flu PB1 238-246, reference compound]
HLA-B*2701
  EC50: 5 ± 1 µM
HLA-B*2704
  EC50: 9 ± 1 µM
HLA-B*2705
  EC50: 3 ± 2 µM
HLA-B*2709
  EC50: 2 ± 1 µM
HLA-B*2703
  EC50: 2 ± 1 µM
HLA-B*2702
  EC50: 12 ± 4 µM
HLA-B*2706
  EC50: 2 ± 1 µM

— paper PMC4182091, “A Common Minimal Motif for the Ligands of HLA-B*27 Class I Molecules” (PLoS ONE, 2014)
